Test results published in ChEMBL document CHEMBL5042495, “Lead Optimization of Influenza Virus RNA Polymerase Inhibitors Targeting PA-PB1 Interaction” (J Med Chem, 2022).
Active and inactive are the calls of the source. No cut-off for these calls is given here.

Columns and labels:
[1] = Cytotoxicity in dog MDCK cells assessed as reduction in cell viability incubated for 48 hrs by crystal violet staining based assay; assay type: toxicity, Canis lupus familiaris
Influenza A virus [2] = assay: Antiviral activity against Influenza A virus A/WSN/33(H1N1) strain infected in MDCK cells assessed as reduction in viral infection incubated for 48 hrs by crystal violet staining based assay; assay type: functional, organism-based
HEK293T [3] = assay: Inhibition of Influenza A virus RNA dependent RNA polymerase activity in HEK293T cells co-transfected with pPoll/NP(0)GFP(0) at 10 to 40 uM after 2 hrs post-transfection followed by compound addition incubated for 22 hrs by fluorescence microscopic analysis; assay type: cell-based; conditions: dose 10-40 µM
Influenza A virus [4] = assay: Antiviral activity against Influenza A virus A/Aichi/8/68(H3N2) strain infected in MDCK cells assessed as reduction in viral infection incubated for 48 hrs by crystal violet staining based assay; assay type: functional, organism-based
Influenza A virus [5] = assay: Antiviral activity against Influenza A virus A/Puerto Rico/8/34(H1N1) strain infected in MDCK cells assessed as reduction in viral infection incubated for 48 hrs by crystal violet staining based assay; assay type: functional, organism-based
Influenza A virus [6] = assay: Antiviral activity against Influenza A virus A/Virginia/ATCC2/2009(H1N1) strain infected in MDCK cells assessed as reduction in viral infection incubated for 48 hrs by crystal violet staining based assay; assay type: functional, organism-based
Influenza A virus [7] = assay: Antiviral activity against Influenza A virus A/California/7/2009(H1N1) strain infected in MDCK cells assessed as reduction in viral infection incubated for 48 hrs by crystal violet staining based assay; assay type: functional, organism-based
Influenza A virus [8] = assay: Antiviral activity against Influenza A virus B/Lee/40(type B) strain infected in MDCK cells assessed as reduction in viral infection incubated for 48 hrs by crystal violet staining based assay; assay type: functional, organism-based
HEK293T [9] = assay: Inhibition of Influenza A virus RNA dependent RNA polymerase activity in HEK293T cells co-transfected with pPoll/NP(0)GFP(0) after 2 hrs post-transfection followed by compound addition incubated for 22 hrs by fluorescence microscopic analysis; assay type: cell-based
HEK293T [10] = assay: Inhibition of Influenza A virus RNA dependent RNA polymerase activity in HEK293T cells co-transfected with pPoll/NP(0)GFP(0) assessed as reduction on number of GFP positive cells at 10 uM after 2 hrs post-transfection followed by compound addition incubated for 22 hrs by fluorescence microscopic analysis; assay type: cell-based
HEK293T [11] = assay: Inhibition of Influenza A virus RNA dependent RNA polymerase activity in HEK293T cells co-transfected with pPoll/NP(0)GFP(0) assessed as reduction on number of GFP positive cells at 10 nM after 2 hrs post-transfection followed by compound addition incubated for 22 hrs by fluorescence microscopic analysis; assay type: cell-based

Compound | CC50 at 48 h [1] | EC50 (Influenza A virus [2]) | other results
CCC(C)(C)n1nnnc1C(c1cc2cccc(C)c2[nH]c1=O)N(Cc1ccccc1)Cc1ccc(F)cc1 (stereo unspecified) | > 83000 nM | 570 nM | inhibition (HEK293T [3]): Dose-Dependent Effect
C[C@@H](c1ccc(OC(F)(F)F)cc1)N(Cc1ccc(C(C)(C)C)cc1)Cc1cc2cc(C3CC3)ccc2[nH]c1=O | > 10000 nM | 77 nM | EC50 (Influenza A virus [4]): 72 nM; EC50 (Influenza A virus [5]): 67 nM; EC50 (Influenza A virus [6]): 64 nM; EC50 (Influenza A virus [7]): 270 nM; EC50 (Influenza A virus [8]): 230 nM; inhibition (HEK293T [9]): Active; inhibition (HEK293T [10]): Active
O=C1c2c(O)c(=O)ccn2N([C@@H]2c3ccccc3SCc3c2ccc(F)c3F)[C@@H]2COCCN12 [BALOXAVIR] |  | 3 nM | EC50 (Influenza A virus [4]): 4 nM; EC50 (Influenza A virus [5]): 7 nM; EC50 (Influenza A virus [6]): 6 nM; EC50 (Influenza A virus [7]): 4 nM; EC50 (Influenza A virus [8]): 170 nM; inhibition (HEK293T [11]): Active
NC(=O)c1nc(F)cnc1O [FAVIPIRAVIR] |  | 1900 nM | EC50 (Influenza A virus [7]): 2900 nM
CCc1ccc2[nH]c(=O)c(CN(Cc3ccc(C(C)(C)C)cc3)C(C)c3ccc(OC(F)F)cc3)cc2c1 (stereo unspecified) | > 5000 nM | 320 nM | 
COc1ccc(C(C)N(Cc2ccc(C(C)(C)C)cc2)Cc2cc3cc(C)ccc3[nH]c2=O)cc1 (stereo unspecified) | > 5000 nM | 260 nM | 
Cc1ccc2cc(C(C#N)N(Cc3ccccc3)Cc3ccc(C(C)C)cc3)c(=O)[nH]c2c1 (stereo unspecified) | > 83000 nM | 5600 nM | 
CC(c1ccc(OC(F)(F)F)c(Cl)c1)N(Cc1ccc(C(C)(C)C)cc1)Cc1cc2cc(C3CC3)ccc2[nH]c1=O (stereo unspecified) | > 10000 nM | 1200 nM | 
COc1ccc(C(C)N(Cc2ccc(C(C)(C)C)cc2)Cc2cc3cc(C)ccc3[nH]c2=O)cc1Cl (stereo unspecified) | > 10000 nM | 110 nM | 
COc1ccc2[nH]c(=O)c(CN(Cc3ccc(C(C)(C)C)cc3)Cc3ccc(C(F)(F)F)c(Cl)c3)cc2c1 | > 10000 nM | 85 nM | 
Cc1ccc2[nH]c(=O)c(C(C#N)N(Cc3ccccc3)Cc3ccc(C(C)C)cc3)cc2c1 (stereo unspecified) | > 83000 nM | 15000 nM | 
Cc1ccc2cc(C(C#N)N(Cc3ccc(F)cc3)Cc3ccc(C(C)C)cc3)c(=O)[nH]c2c1 (stereo unspecified) | 21000 nM | 54000 nM | 
COc1ccc([C@H](C)N(Cc2ccc(C(C)(C)C)cc2)Cc2cc3cc(C4CC4)ccc3[nH]c2=O)cc1 | > 10000 nM | 160 nM | 
CCc1ccc2[nH]c(=O)c(CN(Cc3ccc(C(C)(C)C)cc3)Cc3ccc(F)c(F)c3)cc2c1 | > 33000 nM | 63000 nM | 
CCc1ccc2[nH]c(=O)c(CN(Cc3ccc(C(C)(C)C)cc3)C(C)c3ccc(OC)cc3)cc2c1 (stereo unspecified) | > 5000 nM | 220 nM | 
CC(C)c1ccc2[nH]c(=O)c(CN(Cc3ccc(C(C)(C)C)cc3)C(C)c3ccc(F)cc3)cc2c1 (stereo unspecified) | 13100 nM | 5400 nM | 
Cc1ccc2[nH]c(=O)c(CN(Cc3ccc(C(C)(C)C)cc3)C(C)c3ccc(OC(F)F)cc3)cc2c1 (stereo unspecified) | > 5000 nM | 360 nM | 
Cc1ccc2[nH]c(=O)c(CN(Cc3ccc(OC(F)(F)F)cc3)Cc3ccc(C(C)(C)C)cc3)cc2c1 | > 5000 nM | 490 nM | 
CCOc1ccc(CN(Cc2ccc(C(C)(C)C)cc2)Cc2cc3cc(C)ccc3[nH]c2=O)cc1 | > 10000 nM | 540 nM | 
CC(C)(C)c1ccc(CN(Cc2ccc(C(F)(F)F)c(Cl)c2)Cc2cc3cc(C4CC4)ccc3[nH]c2=O)cc1 | > 10000 nM | 630 nM | 
CCc1ccc2[nH]c(=O)c(CN(Cc3ccc(OC(F)F)cc3)Cc3ccc(C(C)(C)C)cc3)cc2c1 | > 5000 nM | 460 nM | 

Compound | CC50 at 48 h [1] | EC50 (Influenza A virus [2]) | other results
CCOC(=O)C1=C[C@@H](OC(CC)CC)[C@H](NC(C)=O)[C@@H](N)C1 [OSELTAMIVIR PHOSPHATE] |  | 2010 nM | EC50 (Influenza A virus [4]): 2250 nM; EC50 (Influenza A virus [5]): 11600 nM; EC50 (Influenza A virus [6]): 18500 nM; EC50 (Influenza A virus [7]): 4620 nM; inhibition (HEK293T [3]): inactive
CCCOc1ccc(CN(Cc2ccc(C(C)(C)C)cc2)Cc2cc3cc(C)ccc3[nH]c2=O)cc1 | > 5000 nM | 3000 nM | 
CN(C)c1ccc(CN(Cc2ccc(C(C)(C)C)cc2)Cc2cc3cc(Br)ccc3[nH]c2=O)cc1 | > 10000 nM | 530 nM | 
CSc1ccc(CN(Cc2ccc(C(C)(C)C)cc2)Cc2cc3cc(C)ccc3[nH]c2=O)cc1 | > 5000 nM | 510 nM | 
Cc1ccc2[nH]c(=O)c(CN(Cc3ccc(F)cc3)Cc3ccc(C(C)(C)C)cc3)cc2c1 | > 27000 nM | 390 nM | 
COc1ccc(CN(Cc2ccc(C(C)(C)C)cc2)Cc2cc3cc(C)ccc3[nH]c2=O)cc1 | > 10000 nM | 330 nM | 
COc1ccc([C@H](C)N(Cc2ccc(C(C)(C)C)cc2)Cc2cc3cc(C(C)C)ccc3[nH]c2=O)cc1 | > 10000 nM | 480 nM | 
CCc1ccc2[nH]c(=O)c(CN(Cc3ccc(C(C)(C)C)cc3)[C@@H](C)c3ccc(OC)cc3)cc2c1 | > 5000 nM | 103 nM | inhibition (HEK293T [3]): Dose-Dependent Effect; inhibition (HEK293T [9]): Active; inhibition (HEK293T [10]): Active
CCc1ccc2[nH]c(=O)c(CN(Cc3ccc(OCOC)cc3)Cc3ccc(C(C)(C)C)cc3)cc2c1 | > 10000 nM | 1000 nM | 
C[C@@H](c1ccc(OC(F)(F)F)cc1)N(Cc1ccc(C(F)(F)F)c(Cl)c1)Cc1cc2cc(C3CC3)ccc2[nH]c1=O | 7900 nM | 120 nM | 
CCc1ccc2[nH]c(=O)c(CN(Cc3ccc(C(C)(C)C)cc3)C(C)c3ccc(F)cc3)cc2c1 (stereo unspecified) | 2800 nM | 520 nM | 
CCc1ccc(CN(Cc2ccc(F)cc2)Cc2cc3ccc(C)cc3[nH]c2=O)cc1 | > 33000 nM | 1800 nM | 
Cc1ccc2[nH]c(=O)c(CN(Cc3ccc(SC(F)(F)F)cc3)Cc3ccc(C(C)(C)C)cc3)cc2c1 | > 5000 nM | 1300 nM | 
Cc1ccc2[nH]c(=O)c(CN(Cc3ccc(O)cc3)Cc3ccc(C(C)(C)C)cc3)cc2c1 | 4900 nM | 2100 nM | 
C[C@@H](c1ccc(OC(F)(F)F)cc1)N(Cc1ccc(C(C)(C)C)cc1)Cc1cc2cc(C(F)(F)F)ccc2[nH]c1=O | > 10000 nM | 260 nM | 
CC(c1ccc(OC(F)(F)F)c(Cl)c1)N(Cc1ccc(C(C)(C)C)cc1)Cc1cc2cc(Br)ccc2[nH]c1=O (stereo unspecified) | > 10000 nM | 280 nM | 
COc1ccc2[nH]c(=O)c(CN(Cc3ccc(C(C)(C)C)cc3)C(C)c3ccc(OC)c(Cl)c3)cc2c1 (stereo unspecified) | > 10000 nM | 61 nM | EC50 (Influenza A virus [4]): 85 nM; EC50 (Influenza A virus [5]): 72 nM; EC50 (Influenza A virus [6]): 77 nM; EC50 (Influenza A virus [7]): 230 nM; EC50 (Influenza A virus [8]): 79 nM; inhibition (HEK293T [9]): Active; inhibition (HEK293T [10]): Active
CCc1ccc2[nH]c(=O)c(CN(Cc3ccc(C(C)(C)C)cc3)[C@@H](C)c3ccc(F)cc3)cc2c1 | > 5000 nM | 790 nM | 
CC(c1ccc(N(C)C)c(Cl)c1)N(Cc1ccc(C(C)(C)C)cc1)Cc1cc2cc(C3CC3)ccc2[nH]c1=O (stereo unspecified) | > 10000 nM | 90 nM | 
CCc1ccc2[nH]c(=O)c(CN(Cc3ccc(O)cc3)Cc3ccc(C(C)(C)C)cc3)cc2c1 | > 10000 nM | 1800 nM | 
Cc1ccc2[nH]c(=O)c(CN(Cc3cccc(F)c3)Cc3ccc4ccccc4c3)cc2c1 | > 5000 nM | 3100 nM | 
